# Active and inactive are the calls of the source.
# Legend:
# [1] = system: H4; test: Luminescence Cell-Based Dose Response HTS to Identify Activators of 5'UTR Stem-Loop Driven Prion Protein mRNA Translation in H4 Neuroglioblastoma Cells. [Related pubchem assays: 1829 (Project Summary), 1814 (Primary HTS)]; type: functional; details: Homo sapiens
# [2] = Luminescence Cell-Based Dose Confirmation HTS to Identify Activators of 5'UTR Stem-Loop Driven Alpha-Synuclein mRNA Translation in H4 Neuroglioblastoma Cells. [Related pubchem assays: 1829 (Project Summary), 1814 (Primary HTS)]; type: functional
# [3] = Luminescence Cell-Based Dose Response HTS to Identify Activators of Luciferase Translation or Activity in H4 […] Cells. [Related pubchem assays: 1829 (Project Summary), 1814 (Primary HTS)]; type: functional
# [4] = inhibitors of SNCA 5'UTR-driven reporter translation, confirmation, H4 neuroglioma cells, luminescence (AID 1988); type: functional, cell-based
# [5] = Luminescence Cell-Based Dose Response HTS to Identify Inhibitors of 5'UTR Stem-Loop Driven Prion Protein mRNA Translation in H4 Neuroglioblastoma Cells. [Related pubchem assays: 1827 (Project Summary), 1813 (Primary HTS)]; type: functional
# [6] = inhibitors of firefly luciferase expression or activity, dose response, H4 neuroglioma cells, luminescence (AID 1990); type: functional, cell-based
# [7] = target: T1, Microphthalmia-associated transcription factor (Homo sapiens, UniProt O75030); test: TRPM1 promoter luciferase signal decrease, dose response, MITF inhibitor project, cell-based, SK-MEL-5, cherry-picked, set 3 (AID 493073); type: functional
# T1 sequence (O75030 whole entry): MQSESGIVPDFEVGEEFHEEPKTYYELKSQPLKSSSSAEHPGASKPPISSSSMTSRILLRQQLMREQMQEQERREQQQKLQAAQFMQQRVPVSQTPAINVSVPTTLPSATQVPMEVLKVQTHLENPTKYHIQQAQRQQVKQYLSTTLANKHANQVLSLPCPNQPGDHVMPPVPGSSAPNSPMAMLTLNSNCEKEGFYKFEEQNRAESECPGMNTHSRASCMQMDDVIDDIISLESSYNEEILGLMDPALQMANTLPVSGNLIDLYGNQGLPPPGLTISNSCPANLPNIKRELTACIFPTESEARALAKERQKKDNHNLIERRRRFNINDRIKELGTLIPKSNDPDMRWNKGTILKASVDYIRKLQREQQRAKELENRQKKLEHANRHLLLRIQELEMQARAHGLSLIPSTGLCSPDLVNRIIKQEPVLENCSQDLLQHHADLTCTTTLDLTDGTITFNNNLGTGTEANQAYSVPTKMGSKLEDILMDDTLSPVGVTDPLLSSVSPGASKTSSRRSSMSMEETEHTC
# [8] = target: T2, High affinity choline transporter 1 (Homo sapiens, UniProt Q9GZV3); test: CHT inhibitors, dose response, cell-based, 5-point CRC, membrane potential dye (AID 504840); type: functional
# T2 sequence (Q9GZV3 whole entry): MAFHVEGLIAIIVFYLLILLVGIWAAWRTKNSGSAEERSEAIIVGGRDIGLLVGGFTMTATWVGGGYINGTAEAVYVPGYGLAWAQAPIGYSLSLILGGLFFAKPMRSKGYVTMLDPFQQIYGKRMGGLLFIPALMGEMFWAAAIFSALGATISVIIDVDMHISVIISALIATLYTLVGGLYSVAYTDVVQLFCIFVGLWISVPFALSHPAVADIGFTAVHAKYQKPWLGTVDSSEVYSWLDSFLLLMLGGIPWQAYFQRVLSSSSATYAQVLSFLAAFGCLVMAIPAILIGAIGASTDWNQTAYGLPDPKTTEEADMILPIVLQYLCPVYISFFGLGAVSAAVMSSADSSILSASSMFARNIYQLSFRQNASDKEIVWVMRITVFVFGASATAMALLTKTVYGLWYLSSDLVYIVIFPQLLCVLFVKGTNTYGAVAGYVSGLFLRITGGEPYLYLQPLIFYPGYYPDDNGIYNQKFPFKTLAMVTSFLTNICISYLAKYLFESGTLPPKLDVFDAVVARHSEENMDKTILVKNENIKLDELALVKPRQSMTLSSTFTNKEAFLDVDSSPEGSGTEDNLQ
# [9] = target: T3, Protein skinhead-1 (Caenorhabditis elegans, UniProt P34707); type: functional
# T3 sequence (P34707 whole entry): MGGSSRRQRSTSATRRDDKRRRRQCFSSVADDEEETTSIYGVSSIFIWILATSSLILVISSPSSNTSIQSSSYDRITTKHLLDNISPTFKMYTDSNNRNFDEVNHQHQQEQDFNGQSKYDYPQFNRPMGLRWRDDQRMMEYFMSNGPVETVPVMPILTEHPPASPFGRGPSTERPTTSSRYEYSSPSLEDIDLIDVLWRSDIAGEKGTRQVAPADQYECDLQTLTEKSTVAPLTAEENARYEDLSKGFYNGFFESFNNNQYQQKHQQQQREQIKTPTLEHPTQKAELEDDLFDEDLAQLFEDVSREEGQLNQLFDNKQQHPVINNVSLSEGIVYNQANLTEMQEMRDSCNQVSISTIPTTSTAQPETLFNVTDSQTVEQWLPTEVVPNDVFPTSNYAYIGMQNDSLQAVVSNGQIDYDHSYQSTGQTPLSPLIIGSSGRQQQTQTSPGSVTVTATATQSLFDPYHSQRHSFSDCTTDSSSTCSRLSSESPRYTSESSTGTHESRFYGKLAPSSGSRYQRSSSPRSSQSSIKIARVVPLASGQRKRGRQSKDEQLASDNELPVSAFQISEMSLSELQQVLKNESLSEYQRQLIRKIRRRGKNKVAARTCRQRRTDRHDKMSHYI
# [10] = Shn3 3'UTR reporter inhibitors, dose response, cell-based, Clone20 osteoblasts, firefly luciferase, cherry-picked (AID 624132); type: functional;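 further: firefly luciferase luminescence from reporter carrying the Shn3 3'UTR in osteoblasts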
# [11] = control 3'UTR Renilla luciferase suppression, dose response, counter-screen for Shn3 inhibitor project, cell-based, Clone20-Shn3RL, cherry-picked (AID 624133); type: functional
# [12] = HEp-2 cell cytotoxicity, dose response, cytotoxicity control for RSV inhibitor project, HTS (AID 2410); type: functional; details: human respiratory syncytial virus
# [13] = growth suppression of beta-catenin-knockout colon cells, dose response, cell-based, HCT116, human colon tumor (AID 1045); type: functional;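 further: HCT116 colon tumor cells with beta catenin knocked out; cells exposed to compound for 60 hours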
# [14] = growth suppression of PTEN-null colon cells, dose response, cell-based, HCT116 PTEN knockout (AID 1047); type: functional;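 further: HCT116 colon tumor cells with PTEN knocked out; cells exposed to compound for 60 hours before readout; potency for loss of cell viability measured by luminescence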
# [15] = target: T4, Zinc finger protein mex-5 (Caenorhabditis elegans, UniProt Q9XUB2); test: MEX-5/TCR-2 RNA interaction inhibitors, dose response, biochemical, C. elegans, fluorescence polarization (AID 1960)
# T4 sequence (Q9XUB2 whole entry): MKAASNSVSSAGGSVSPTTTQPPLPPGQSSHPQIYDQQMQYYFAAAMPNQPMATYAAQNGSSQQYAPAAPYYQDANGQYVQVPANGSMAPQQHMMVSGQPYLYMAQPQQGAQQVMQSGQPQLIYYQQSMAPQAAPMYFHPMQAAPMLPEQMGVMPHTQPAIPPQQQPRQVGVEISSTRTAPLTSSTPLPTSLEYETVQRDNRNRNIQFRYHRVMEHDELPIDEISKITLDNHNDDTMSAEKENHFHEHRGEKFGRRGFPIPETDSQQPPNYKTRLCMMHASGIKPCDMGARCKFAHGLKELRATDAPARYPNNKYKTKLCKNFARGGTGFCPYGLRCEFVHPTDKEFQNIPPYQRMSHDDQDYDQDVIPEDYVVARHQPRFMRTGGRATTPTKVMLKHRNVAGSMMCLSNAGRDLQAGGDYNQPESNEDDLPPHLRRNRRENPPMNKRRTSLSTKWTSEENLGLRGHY
# [16] = target: T5, RNA-binding protein pos-1 (Caenorhabditis elegans, UniProt G5EF15); test: inhibitors of POS-1/mex-3 RNA binding, dose response, biochemical, fluorescence polarization (AID 1964);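 further: purified POS-1 fused to maltose binding protein made in E. coli; potency of compounds blocking POS-1 binding to fluorescent RNA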
# T5 sequence (G5EF15 whole entry): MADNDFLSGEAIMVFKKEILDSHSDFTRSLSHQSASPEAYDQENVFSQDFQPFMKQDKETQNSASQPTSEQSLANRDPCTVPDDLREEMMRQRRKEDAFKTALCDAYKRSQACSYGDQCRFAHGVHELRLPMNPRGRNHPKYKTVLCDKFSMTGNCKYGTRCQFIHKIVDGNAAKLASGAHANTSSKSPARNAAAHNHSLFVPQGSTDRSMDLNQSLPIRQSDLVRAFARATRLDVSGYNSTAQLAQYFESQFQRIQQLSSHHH
# [17] = target: T6, Rac GTPase-activating protein 1 (Homo sapiens, UniProt Q9H0H5); test: MgcRacGAP GTPase-activating activity inhibitors, confirmation, biochemical, ADP Hunter fluorescence, primary and confirmatory (AID 624330); type: functional
# T6 sequence (Q9H0H5 whole entry): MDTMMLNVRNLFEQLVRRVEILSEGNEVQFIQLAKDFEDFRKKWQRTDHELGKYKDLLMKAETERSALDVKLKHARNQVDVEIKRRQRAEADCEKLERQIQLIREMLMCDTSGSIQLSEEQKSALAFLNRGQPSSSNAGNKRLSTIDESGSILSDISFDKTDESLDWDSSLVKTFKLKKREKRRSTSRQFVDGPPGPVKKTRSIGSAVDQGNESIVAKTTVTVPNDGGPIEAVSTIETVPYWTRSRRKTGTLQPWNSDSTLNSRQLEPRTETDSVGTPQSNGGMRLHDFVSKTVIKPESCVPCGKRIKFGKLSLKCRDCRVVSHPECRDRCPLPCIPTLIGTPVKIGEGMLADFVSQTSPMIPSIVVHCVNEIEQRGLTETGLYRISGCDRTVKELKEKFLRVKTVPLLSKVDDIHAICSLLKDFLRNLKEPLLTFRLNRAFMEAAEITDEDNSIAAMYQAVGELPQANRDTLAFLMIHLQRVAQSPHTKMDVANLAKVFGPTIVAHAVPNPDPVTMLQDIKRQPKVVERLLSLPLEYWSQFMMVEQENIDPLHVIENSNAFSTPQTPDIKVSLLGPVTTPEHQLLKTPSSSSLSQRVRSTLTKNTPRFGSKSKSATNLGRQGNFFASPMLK
# [18] = LGR2 antagonists, dose response, cell-based, HEK293, CRE-luciferase reporter, cherry pick, set 2 (AID 743343); type: functional;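 further: transfected cells were stimulated with diluted bursicon conditioned medium after compound addition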
# [19] = MC4R antagonists, dose response, counter-screen for LGR2 antagonist project, cell-based, plate reader, cherry pick (AID 743444); type: functional;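 further: transfected HEK 293 cells stimulated with alpha-MSH peptide; potency of inhibitors of the alpha-MSH evoked signal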
Compound,EC50 [1],EC50 [2],EC50 [3],other results
O=C1Nc2cc(Cl)c(Cl)cc2N(O)N1c1ccc(Cl)cc1,> 120 µM (not active),> 120 µM (not active),> 120 µM (not active),
O=C(Nc1nc2cc3c(cc2s1)OCO3)C1=COCCO1,,,,EC50 [4]: 1.22 µM (active); EC50 [5]: 6.64 µM (active); EC50 [6]: 2.39 µM (inconclusive); AC50 [7]: 3.77 µM (active)
CCOC(=O)c1cccc(NC(=O)CCS(=O)(=O)c2cccc3nsnc23)c1,,,,IC50 [8]: 14.8 µM (active)
O=C(CNS(=O)(=O)c1cccs1)Nc1ccc2c(c1)OCCO2,2.85 µM (active),11.6 µM (active),7.8 µM (active),
Brc1ccc(-c2cn3ccccc3n2)s1,,,,IC50 [9]: 12.7 µM (active)
CC1(C(=O)N2CCC(CC3CC(c4ccc(Cl)cc4)=NO3)(C(=O)NCC3CCCCC3)CC2)CC1 (configuration not stated),,,,IC50 [8]: 6.92 µM (active)
O=C(c1ccc(O)cc1)c1ccc(Cl)cc1,,,,IC50 [8]: 11 µM (active)
CC(C)CCNC(=O)c1cc2c(O)nc3ccccc3c2s1,,,,AC50 [10]: 41.5 µM (active); AC50 [11]: 18.4 µM (active)
O=C(Nc1nc2c(ccc3ccccc32)s1)c1ccco1,,,,CC50 [12]: 14.8 µM (active); IC50 [9]: 14.9 µM (active)
CCCNC(=O)c1c(NC(=O)C2COc3ccccc3O2)sc2c1CCCC2 (configuration not stated),,,,EC50 [13]: 9.98 µM (active); EC50 [14]: 8.59 µM (active)
Fc1ccccc1Nc1nc2ccccc2n2nnnc12,62.6 µM (active),26.2 µM (active),95.3 µM (active),
COc1ccc(C2=NN(CN3C(=O)C(=O)c4ccccc43)C(c3ccc(OC)cc3)C2)cc1 (configuration not stated),0.112 µM (active),14.6 µM (active),,
Cc1ccc2nc3sc(C(=O)N4CCCc5ccccc54)c(N)c3cc2c1,> 120 µM (not active),> 120 µM (not active),7.55 µM (active),EC50 [15]: > 300 µM (inconclusive); EC50 [16]: > 300 µM (not active)
CC(=O)N(C1=NCCCS1)c1ccc(F)cc1,,,,IC50 [9]: > 100 µM (inactive)
C[n+]1cn(/N=C/c2ccccc2)c2ccccc21,57.7 µM (active),17.4 µM (active),> 120 µM (not active),
CC(C)CC(=O)Nc1ccc(Nc2ccccc2)cc1,,,,IC50 [9]: > 100 µM (inactive)
CCc1cc(SC#N)cc(CC)c1NC(=O)CCl,,,,EC50 [13]: 8.43 µM (active); EC50 [14]: 8.97 µM (active)
c1ccc(CSc2nnc(-c3ccco3)n2Cc2ccccc2)cc1,7.76 µM (active),0.166 µM (active),6.57 µM (active),
CCOC(=O)N1CCC(N2CCN(S(=O)(=O)c3ccc4ccccc4c3)CC2)CC1,,,,IC50 [17]: 151 µM (active)
CN(C)c1ccc(C2NC(=O)c3ccccc3N2)cc1 (configuration not stated),,,,AC50 [18]: 7.27 µM (active); AC50 [19]: 9.95 µM (active)
COc1cc2nc(C3CC3)n(NC(=O)c3ccc(Cl)cc3)c(=O)c2cc1OC,,,,IC50 [9]: > 100 µM (inactive)
FC(F)(F)c1ccccc1Cc1c(-c2ccccc2)nc2ccc(Br)cn12,,,,IC50 [9]: > 100 µM (inactive)
NS(=O)(=O)c1cc2c(cc1Cl)NC(C1C[C@H]3C=C[C@@H]1C3)NS2(=O)=O (some centres not stated),> 120 µM (not active),> 120 µM (not active),> 120 µM (not active),
COc1ccc2cc(C(=O)N3CCN(C)CC3)[nH]c2c1,> 120 µM (not active),13.3 µM (active),9.45 µM (active),
ClC(=C\c1ccccc1)/C=N/N1CCN(c2ccccn2)CC1,8.35 µM (active),0.347 µM (active),36.5 µM (active),
C=C(C)CN1C(=O)C(O)(CC(=O)c2ccc3c(c2)OCCO3)c2ccccc21 (configuration not stated),,,,EC50 [13]: 22.7 µM (active); EC50 [14]: 22.1 µM (active)
Cc1cc(C)c(OCC(O)CN2CCN(C(=O)c3ccccc3)CC2)c(C)c1 (configuration not stated),,,,IC50 [17]: 139 µM (active)

# From ChEMBL document CHEMBL1201862, “PubChem BioAssay data set” (2004)
